Measured values: patent US8030499B2, “1,3-dihydro-2H-indole-2-one compound and pyrrolidine-2-one compound fused with aromatic heterocycle” (Taisho Pharmaceutical Co., Ltd., priority 2005, dated 2011)
Where a name gives a salt, the structure may show the parent alone.

biological target: T1, human V1b receptor (Homo sapiens, UniProt P47901); assay: V1b receptor binding assay ([3H](Arg8)-vasopressin, crude membranes of CHO cells); details: 0.1 μmol/L test drug, V1b receptor binding assay; read-out: Rate of inhibition (V1b: % of inhibition)
T1 construct: expressed in transfected cells; host or cells: CHO cells
T1 sequence (P47901 1-424): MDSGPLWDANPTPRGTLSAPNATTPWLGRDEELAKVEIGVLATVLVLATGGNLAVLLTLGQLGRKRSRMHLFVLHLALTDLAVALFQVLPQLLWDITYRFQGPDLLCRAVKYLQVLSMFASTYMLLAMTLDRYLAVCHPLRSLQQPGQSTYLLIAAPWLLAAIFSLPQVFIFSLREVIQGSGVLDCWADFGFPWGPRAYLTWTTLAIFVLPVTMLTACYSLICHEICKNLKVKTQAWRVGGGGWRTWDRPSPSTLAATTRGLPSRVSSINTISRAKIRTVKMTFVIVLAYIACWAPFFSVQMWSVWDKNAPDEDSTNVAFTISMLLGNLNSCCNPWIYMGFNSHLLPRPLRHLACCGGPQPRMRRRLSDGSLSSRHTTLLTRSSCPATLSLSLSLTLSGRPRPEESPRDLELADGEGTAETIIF
Procedure: A summary of the methods is given below.
Each obtained homogenate was centrifuged for 20 minutes at 50,000×g and 4° C., the sediment was resuspended in a 50 mmol/L Tris hydrochloric acid buffer solution (pH7.4, containing 10 mmol/L magnesium chloride and 0.1% bovine serum albumin), which served as a crude membrane preparation. This crude membrane preparation was added with [^3H] (Arg^8) vasopressin (final concentration: 0.1 nmol/L to 0.4 nmol/L), and each test drug (final concentration: 0.1 nmol/L to lμmol/L or 0.01 nmol/L to 0.1 μmol/L) to 22° C. for 90 minutes. After the end of the reaction, the reaction solution was filtrated using a GF/C glass fiber filter, which had been presoaked in 0.3% polyethyleneimine for two hours. After the GF/C glass fiber filter was dried sufficiently, scintillator was added, and the radioactivity on the filter was measured using a liquid scintillation counter. Binding of [^3H] (Arg^8)-vasopressin in the presence of (Arg^8)-vasopressin, in the amounts of 0.1 μmol/L in the V1b receptor binding assay and 5 μmol/L in the V1a and V2 receptor binding assay, were taken as non-specific binding, and the value obtained by subtracting non-specific binding from the total binding in the absence (Arg^8)-vasopressin served as specific binding.
In addition, regarding the V1b receptor binding assay, the value obtained by, subtracting the amount of binding in the presence of 0.1 μmol/L test drug from the total amount of binding, divided by the amount of specific binding, served as the rate of inhibition (% of inhibition) of the test drug at the concentration tested.

inhibition at 0.1 µM [%]	SMILES
102	COC(=O)[C@@H]1C[C@@H](O)CN1C1(c2ccccc2OC)C(=O)N(S(=O)(=O)c2ccc(OC)cc2OC(F)(F)F)c2ccc(Cl)cc21 (single isomer, unassigned) [Example 4]
96	COc1ccc(S(=O)(=O)N2C(=O)C(c3ccccc3OC)(N3C[C@H](F)C[C@H]3C(=O)N(C)C)c3cc(Cl)ccc32)c(OC(F)(F)F)c1 (single isomer, unassigned) [Example 7]
72	COc1ccc(S(=O)(=O)N2C(=O)C(N[C@@H](Cc3ccncc3)C(=O)N(C)C)(c3ccccc3OC)c3cc(Cl)ccc32)c(OC(F)(F)F)c1 (single isomer, unassigned) [Example 83]
86	COc1ccc(S(=O)(=O)N2C(=O)C(N[C@@H](Cc3ccc(O)cc3)C(=O)N(C)C)(c3ccccc3OC)c3cc(Cl)ccc32)c(OC(F)(F)F)c1 (single isomer, unassigned) [Example 86]
104	COc1ccc(S(=O)(=O)N2C(=O)C(c3cccc4c3OCC4)(N3C[C@H](O)C[C@H]3C(=O)N(C)C)c3cc(Cl)ccc32)c(OC(F)(F)F)c1 (single isomer, unassigned) [Example 89]
102	COc1ccc(S(=O)(=O)N2C(=O)C(c3cccc4c3OCO4)(N3C[C@H](O)C[C@H]3C(=O)N(C)C)c3cc(Br)ccc32)c(OC(F)(F)F)c1 (single isomer, unassigned) [Example 92]
73	COc1ccc(C2(N3CCCC[C@H]3C(=O)N(C)C)C(=O)N(S(=O)(=O)c3ccc(OC)cc3OC(F)(F)F)c3ccc(C)cc32)cc1 (single isomer, unassigned) [Example 96]
102	COc1ccc(S(=O)(=O)N2C(=O)C(c3cc(OC)ccc3OC)(N3C[C@H](O)C[C@H]3C(=O)N(C)C)c3cc(Cl)ccc32)c(OC(F)(F)F)c1 (single isomer, unassigned) [Example 102]
94	C=Cc1ccccc1C1(N2C[C@H](O)C[C@H]2C(=O)N(C)C)C(=O)N(S(=O)(=O)c2ccc(OC)cc2OC(F)(F)F)c2ccc(Cl)cc21 (single isomer, unassigned) [Example 104]
95	COc1ccc(S(=O)(=O)N2C(=O)C(c3ccccc3C)(N3C[C@H](O)C[C@H]3C(=O)N(C)C)c3cc(Br)ccc32)c(OC(F)(F)F)c1 (single isomer, unassigned) [Example 105]
102	COc1ccc(S(=O)(=O)N2C(=O)C(c3cccc4c3OCO4)(N3C[C@H](O)C[C@H]3C(=O)N(C)C)c3cc(C)ccc32)c(OC(F)(F)F)c1 (single isomer, unassigned) [Example 107]
95	COc1ccc(S(=O)(=O)N2C(=O)C(c3cc(OC)ccc3OC)(N3CCCC[C@H]3C(=O)N(C)C)c3cc(Cl)ccc32)c(OC(F)(F)F)c1 (single isomer, unassigned) [Example 117]
67	COc1ccc(S(=O)(=O)N2C(=O)C(c3cc(C)ccc3OC)(N3C[C@H](O)C[C@H]3C(=O)N(C)C)c3cc(Cl)cnc32)c(OC(F)(F)F)c1 (single isomer, unassigned) [Example 118]
47	COc1ccc(S(=O)(=O)N2C(=O)C(c3cc(C)ccc3OC)(N3C[C@H](O)C[C@H]3C(=O)N(C)C)c3cc(Br)cnc32)c(OC)c1 (single isomer, unassigned) [Example 121]
92	COC(=O)[C@@H]1C[C@@H](O)CN1C1(c2cc(C)ccc2OC)C(=O)N(S(=O)(=O)c2ccc(OC)cc2OC(F)(F)F)c2ccc(Cl)cc21 (single isomer, unassigned) [Example 135]
96	COc1ccc(S(=O)(=O)N2C(=O)C(c3cc(C)ccc3OC)(N3C[C@H](OC(C)=O)C[C@H]3C(=O)N(C)C)c3cc(Cl)ccc32)c(OC(F)(F)F)c1 (single isomer, unassigned) [Example 137]

inhibition at 0.1 µM [%]	SMILES
94	COc1ccc(S(=O)(=O)N2C(=O)C(c3cc(C)ccc3OC)(N3C[C@H](OCC#N)C[C@H]3C(=O)N(C)C)c3cc(Cl)ccc32)c(OC(F)(F)F)c1 (single isomer, unassigned) [Example 146]
93	COc1ccc(S(=O)(=O)N2C(=O)C(c3cc(C)cnc3OC)(N3C[C@H](O)C[C@H]3C(=O)N(C)C)c3cc(Cl)ccc32)c(OCC(F)(F)F)c1 (single isomer, unassigned) [Example 169]
95	COc1ccc(S(=O)(=O)N2C(=O)C(c3cc(C)ccc3OC)(N3C[C@H](O)C[C@H]3C(=O)N(C)C)c3cc(Cl)ccc32)c(OCC(F)(F)F)c1 (single isomer, unassigned) [Example 171]
97	COc1ccc(C)cc1C1(N2C[C@H](O)C[C@H]2C(=O)N(C)C)C(=O)N(S(=O)(=O)c2ccc(OC)c(OC)c2OC)c2ccc(Cl)cc21 (single isomer, unassigned) [Example 176]
93	COc1ccc(S(=O)(=O)N2C(=O)C(c3cc(N(C)C)ccc3OC)(N3C[C@H](O)C[C@H]3C(=O)N(C)C)c3cc(Cl)ccc32)c(OC(F)(F)F)c1 (single isomer, unassigned) [Example 190]
98	COc1ccc(S(=O)(=O)N2C(=O)C(c3cc(CN4CCCC4)ccc3OC)(N3C[C@H](O)C[C@H]3C(=O)N(C)C)c3cc(Cl)ccc32)c(OC(F)(F)F)c1 (single isomer, unassigned) [Example 199]
53	COc1ccc(S(=O)(=O)N2C(=O)C(c3cc(CN4CCN(C(=O)OC(C)(C)C)CC4)ccc3OC)(N3C[C@H](O)C[C@H]3C(=O)N(C)C)c3cc(Cl)ccc32)c(OC(F)(F)F)c1 (single isomer, unassigned) [Example 201]
87	COc1ccc(S(=O)(=O)N2C(=O)C(c3cc(CO)ccc3OC)(N3C[C@H](O)C[C@H]3C(=O)N(C)C)c3cc(Cl)ccc32)c(OC(F)(F)F)c1 (single isomer, unassigned) [Example 203]
101	COc1ccc(S(=O)(=O)N2C(=O)C(c3cc(C(C)C)ccc3OC)(N3C[C@H](O)C[C@H]3C(=O)N(C)C)c3cc(Cl)ccc32)c(OC(F)(F)F)c1 (single isomer, unassigned) [Example 230]
93	COc1ccc(S(=O)(=O)N2C(=O)C(c3cc(CC#N)ccc3OC)(N3C[C@H](O)C[C@H]3C(=O)N(C)C)c3cc(Cl)ccc32)c(OC(F)(F)F)c1 (single isomer, unassigned) [Example 236]
89	COc1ccc(S(=O)(=O)N2C(=O)C(c3cc(C#N)ccc3OC)(N3C[C@H](O)C[C@H]3C(=O)N(C)C)c3cc(Cl)ccc32)c(OC(F)(F)F)c1 (single isomer, unassigned) [Example 238]
85	COc1ccc(S(=O)(=O)N2C(=O)C(c3cccc(OC)c3OC)(N3C[C@H](O)C[C@H]3C(=O)N(C)C)c3cc(Cl)ccc32)c(OC(F)(F)F)c1 (single isomer, unassigned) [Example 240]
66	COc1ccc(S(=O)(=O)N2C(=O)C(c3ccccc3OC)(N3c4ccccc4C[C@H]3C(=O)N(C)C)c3cc(Cl)ccc32)c(OC(F)(F)F)c1 (stereo partly drawn) [Example 40, (2S)-5′-chloro-3′-(2-methoxyphenyl)-1′-{[4-methoxy-2-(trifluoromethoxy)phenyl]sulfonyl}-N,N-dimethyl-2′-oxo-2,2′,3,3′-tetrahydro-1′H-1,3′-biindole-2-carboxamide]
92	COc1ccc(S(=O)(=O)N2C(=O)C(CC(=O)N3CCN(c4ccncc4)CC3)(c3ccccc3OC)c3cc(Cl)ccc32)c(OC(F)(F)F)c1 (centres unmarked) [Example 43, 5-chloro-3-(2-methoxyphenyl)-1-{[4-methoxy-2-(trifluoromethoxy)phenyl]sulfonyl}-3-[2-oxo-2-(4-pyridin-4-ylpiperazin-1-yl)ethyl]-1,3-dihydro-2H-indol-2-one hydrochloride 1.5 hydrate]
77	COc1ccc(S(=O)(=O)N2C(=O)C(NCC(=O)N3CCN(c4ccncc4)CC3)(c3ccccc3OC)c3cc(Cl)ccc32)c(OC(F)(F)F)c1 (centres unmarked) [Example 58, 5-chloro-3-(2-methoxyphenyl)-1-{[4-methoxy-2-(trifluoromethoxy)phenyl]sulfonyl}-3-{[2-oxo-2-(4-pyridin-4-ylpiperazin-1-yl)ethyl]amino}-1,3-dihydro-2H-indol-2-one]
69	COC(=O)[C@H](C)OC1(c2ccccc2OC)C(=O)N(S(=O)(=O)c2ccc(OC)cc2OC(F)(F)F)c2ccc(Cl)cc21 (stereo partly drawn) [Example 80, Methyl (2S)-2-[(5-chloro-3-(2-methoxyphenyl)-1-{[4-methoxy-2-(trifluoromethoxy)phenyl]sulfonyl}-2-oxo-2,3-dihydro-1H-indol-3-yl)oxy]propanoate]
